Consider 5 molecules from US4221724A, “Antibiotic X-14766A” (Hoffmann-La Roche Inc., priority 1978, dated 1980).

Converted amounts (≈) assume the structure as drawn. “And” between values parts separate entries of the source, which are not always exact repeats. Equal values may be shown once.

One data set can be described thus: toxicity (LD50) in mice. The settings on record: mouse, in vivo.
Data set [1] concerns Staphylococcus aureus ATCC 6538P. Description: antibacterial activity, Minimum Inhibitory Concentration (Table 4). Particulars: ATCC6538P. The format is cell-based.
For another data set, the system named is Sarcina lutea ATCC 9341. The description is as above. The format is cell-based. The settings on record: Micrococcus luteus, ATCC9341.
The subject of data set [2] is Bacillus sp. E ATCC 27859. Described as above. The data set is classed as cell-based. Particulars: ATCC27859.
The subject of data set [3] is Bacillus subtilis Nrrl 558. Described as above. The data set is classed as cell-based. The settings on record: NRRL558.
Data set [4] has as its system Bacillus megaterium ATCC 8011. The description is as above. The format is cell-based. The settings on record: Priestia megaterium, ATCC8011.
In data set [5] the test system is Bacillus sp. TA ATCC 27860. The description is as above. The data set is classed as cell-based. The settings on record: ATCC27860.
The subject of data set [6] is Mycobacterium phlei ATCC 355. The data set is described as above. The data set is classed as cell-based. The settings on record: Mycolicibacterium phlei, ATCC355.
In data set [7] the test system is Streptomyces cellulosae ATCC 3313. Described as above. The data set is classed as cell-based. The settings on record: ATCC3313.
The subject of a further data set is Plasmodium bergei. Description: antimalarial activity against Plasmodium bergei in mice. The data set is classed as in vivo.
The subject of data set [8] is Bacteroides fragilis ATCC 12290. Put plainly: in vitro activity against anaerobic bacteria, two-fold serial broth dilution (Table 5). The settings on record: ATCC12290, trypticase soy broth, 37° C. overnight, read-out: Minimum Inhibitory Concentration. The format is cell-based. (In general: Broth dilution looks for growth in wells or tubes with falling amounts of substance.)

Data set [9] relates to Clostridium histolyticum 503-86. Described as above. The data set is classed as cell-based. Particulars: Hathewaya histolytica, 50386, trypticase soy broth, 37° C. overnight, read-out: Minimum Inhibitory Concentration. Here is the method: (§1) *Two-fold serial broth dilution tests were carried out using trypticase
(§2) soy broth (TSB, BBL) as the test medium. All tests were incubated at
(§3) 37° C. overnight under anaerobic conditions.

Data set [10] relates to Clostridium septicum 503-34. Described as above. The settings on record: 50334, trypticase soy broth, 37° C. overnight, read-out: Minimum Inhibitory Concentration. The format is cell-based. Here is the method: as §1, §2, §3
Data set [11] deals with Treponema hyodysenteriae strain B140. Put plainly: activity against Treponema hyodysenteriae, blood agar plate dilution MIC. The format is cell-based. The settings on record: 48 hours, 42° C., anaerobic, in µg/mL. The source says: (§4) Testing for activity against Treponema hyodysenteriae, a cause of swine dysentery consisted of inoculation of blood agar plates containing a series of two and fourfold dilutions of antibiotic X-14766A and ipronidazole, an agent used in the treatment of swine dysentery, with tenfold dilutions of each of the T. hyodysenteriae strains (H 78, H 140, H 179).

Data set [12] deals with Treponema hyodysenteriae strain B179. Described as above. The format is cell-based. The settings on record: Steers inoculation, 48 hours, 42° C., anaerobic, in µg/mL.
Source text: as §4

Data set [13] has as its system Treponema hyodysenteriae strain B78. Described as above. The format is cell-based. Particulars: 48 hours, 42° C., anaerobic, in µg/mL.
Source text: as §4

Data set [14] has as its system rumen fluid (in vitro rumen fermentations). Further details: species or system bovine. Particulars: for Percent Production of Control Fermantations: Rate of Gas Production / Percent Production of Control Fermantations: Total VFA(%): rumen fluid, 240 min.

In general, LD50 refers to the dose at which mortality reaches 50%. Read a low LD50 as a more toxic substance. The term ED50 denotes the midpoint of the dose-response relation. High values mean weaker potency, low ones greater potency. For `CCOC(=O)C1OC(C2(C)OC3(OC4(C=CC3O)OC(C(C)C(=O)C(C)C(O)C(C)CC(C)c3c(Cl)cc(C)c(O)c3C(=O)O)C(C)CC4C)C(C)C2OC)CC1O` (centres unmarked) [Antibiotic X-14766A], the figures for the 50% lethal dose (LD50) in “toxicity (LD50) in mice” (ip) and in “toxicity (LD50) in mice” (po) were 5.75 mg/kg and 350 mg/kg, respectively. The MIC came to 0.2 µg/mL (≈ 0.238 µM) in data set [1]; 0.2 µg/mL (≈ 0.238 µM) in the data set with Sarcina lutea ATCC 9341; 0.04 µg/mL (≈ 0.0477 µM) in data set [2]; 0.2 µg/mL (≈ 0.238 µM) in data set [3]; 0.08 µg/mL (≈ 0.0953 µM) in data set [4]; 0.08 µg/mL (≈ 0.0953 µM) in data set [5]. In addition, the MIC in data set [6] is 0.2 µg/mL (≈ 0.238 µM); in data set [7], 0.2 µg/mL (≈ 0.238 µM); in data set [8], 0.195 µg/mL (≈ 0.232 µM); in [9] it was 0.0098 µg/mL (≈ 0.0117 µM); in data set [10] it was 0.0098 µg/mL (≈ 0.0117 µM); in [11] (Steers inoculation), < 0.04 and 0.04. Besides, the MIC was 0.02 and 0.04 in [11] (Syringe inoculation); < 0.04 and 0.02 in data set [12]; < 0.04 and 0.02 in [13] (Steers inoculation); 0.02 and 0.04 in [13] (Syringe inoculation). The 50% effect level in the data set on Plasmodium bergei (ED50) was put at a dose of 2.5 mg/kg. In addition, the “C3 /C2 + nC4” value in data set [14] is 0.501 and 0.488. Further, in [14], the “Percent Production of Control Fermantations: Rate of Gas Production” value (shortened to “Percent Production … of Gas Production”) is 90% and 89%. Also, the “Percent Production of Control Fermantations: Total VFA(%)” value (“Percent Production … Total VFA(%)” below) in data set [14] is 150.1% and 138.7%.

As for `CC(C)c1ncc([N+](=O)[O-])n1C` [Ipronidazole, ipronidazole, reference compound], the MIC was 0.16 and 0.31 in data set [11] (Steers inoculation); 0.63 in data set [11] (Syringe inoculation); 0.16 and 0.31 in data set [12]; 0.16 and 0.31 in [13] (Steers inoculation); 0.63 in data set [13] (Syringe inoculation).

Regarding `CC[C@@]1([C@@H]2O[C@@H]([C@H]3O[C@@](O)(CO)[C@H](C)C[C@@H]3C)C[C@@H]2C)CC[C@H]([C@]2(C)CC[C@]3(C[C@H](O)[C@@H](C)[C@@H]([C@@H](C)[C@@H](OC)[C@H](C)C(=O)O)O3)O2)O1` [Monensin], in data set [14], the “C3 /C2 + nC4” value is 0.565 and 0.575; the “Percent Production … of Gas Production” value is 89% and 85%; the “Percent Production … Total VFA(%)” value is 105.3% and 110.7%.

`CC[C@@H](C(=O)O)[C@@H]1O[C@@H]([C@@H](C)[C@H](O)[C@H](C)C(=O)[C@H](CC)[C@H]2O[C@]3(C=C[C@@H](O)[C@]4(CC[C@@](C)([C@H]5CC[C@](O)(CC)[C@H](C)O5)O4)O3)[C@H](C)C[C@@H]2C)[C@@H](C)C[C@@H]1C` [Narasin]: in [14], the “C3 /C2 + nC4” value was 00.583 and 0.581; the “Percent Production … of Gas Production” value was 86% and 88%.

With `CCC(C(=O)O)C1CCC(C)C(C(C)C(O)C(C)C(=O)C(CC)C2OC3(C=CC(O)C4(CCC(C)(C5CCC(O)(CC)C(C)O5)O4)O3)C(C)CC2C)O1` (centres unmarked) [Salino], in data set [14], the “C3 /C2 + nC4” value was 0.497 and 0.512; the “Percent Production … of Gas Production” value is 83% and 90%; the “Percent Production … Total VFA(%)” value is 146.9% and 145.5%.
